According to patent publication US10894793B2, “Bicyclic pyridine, pyrazine, and pyrimidine derivatives as PI3K beta inhibitors” (Janssen Pharmaceutica NV, priority 2016, dated 2021):

Tests used:
[1] = test system: Akt phosphorylated at Thr308 in PC-3 cells; test: Cellular assay: phosphorylation of Akt (Thr308) in PC-3 cells, MSD ELISA; type: cell-based; conditions: Homo sapiens, PC-3, 1 h, 60 min compound incubation, read-out: IC50 pAkt_Thr308
Experimental: (§1) Cellular activity of PI3Kβ inhibitors was determined by quantifying the phosphorylation of Akt in PC-3 cells. Akt phosphorylated at Ser473 and Thr308 were measured using an enzyme-linked immunosorbent assay (ELISA; Meso Scale Discovery (MSD), Gaithersburg, Md.) and specific primary antibodies from MSD.
(§2) On day 1, PC3 cells (ATCC #[…]) were seeded into PerkinElmer MW96 plates at 25.000 cells per well, in 75 μl complete culture medium (DMEM high glucose, AQmedia™, D0819, Sigma-Aldrich) containing 10% heat inactivated FCS and incubated at 37° C., […] during 24 hours. On day 2, compound or DMSO (0.3%) was added and cells were further incubated for 60 min at 37° C., 5% CO2 in a total volume of 100 μl of medium.
(§3) The phosphoprotein assay was executed according to vendor instructions in the Phospho-Akt (Ser473) Assay Whole Cell Lysate Kit (MSD #K15100D-3) and the Phospho-Akt (Thr308) Assay Whole Cell Lysate Kit (MSD #K151DYD-3) using the lysis, blocking and wash buffer provided.
(§4) Briefly, at the end of the cell treatment period, media were removed by aspiration and adherent cells were lysed in 50 μl ice-cold lysis buffer. MSD plates are supplied pre-coated with capture antibodies for Phospho-Akt (Ser473 and Thr308). After blocking, lysates from tissue culture plates were added and plates were washed. Then, a solution containing the detection antibody (anti-total Akt conjugated with an electrochemiluminescent compound-MSD Sulfo-tag label) was added. The signals were detected using an MSD SECTOR Imager 6000 and are proportional to the phospho-Akt titres.
(§5) Data were processed. The percentage of inhibition was plotted against the log concentration of test compounds, and the sigmoidal log concentration-effect curve of best fit was calculated by nonlinear regression analysis. From these concentration-response curves, the IC50 values were calculated. Five concentrations were used for curve fitting.

PIK3Cδ_h = molecular target: T1, PIK3Cδ_h (Homo sapiens, UniProt O00329); test: Enzyme binding assay (KINOMEscan); conditions: DiscoveRx
T1 construct: purchased DiscoveRx Corporation
T1 sequence (O00329 1-1044): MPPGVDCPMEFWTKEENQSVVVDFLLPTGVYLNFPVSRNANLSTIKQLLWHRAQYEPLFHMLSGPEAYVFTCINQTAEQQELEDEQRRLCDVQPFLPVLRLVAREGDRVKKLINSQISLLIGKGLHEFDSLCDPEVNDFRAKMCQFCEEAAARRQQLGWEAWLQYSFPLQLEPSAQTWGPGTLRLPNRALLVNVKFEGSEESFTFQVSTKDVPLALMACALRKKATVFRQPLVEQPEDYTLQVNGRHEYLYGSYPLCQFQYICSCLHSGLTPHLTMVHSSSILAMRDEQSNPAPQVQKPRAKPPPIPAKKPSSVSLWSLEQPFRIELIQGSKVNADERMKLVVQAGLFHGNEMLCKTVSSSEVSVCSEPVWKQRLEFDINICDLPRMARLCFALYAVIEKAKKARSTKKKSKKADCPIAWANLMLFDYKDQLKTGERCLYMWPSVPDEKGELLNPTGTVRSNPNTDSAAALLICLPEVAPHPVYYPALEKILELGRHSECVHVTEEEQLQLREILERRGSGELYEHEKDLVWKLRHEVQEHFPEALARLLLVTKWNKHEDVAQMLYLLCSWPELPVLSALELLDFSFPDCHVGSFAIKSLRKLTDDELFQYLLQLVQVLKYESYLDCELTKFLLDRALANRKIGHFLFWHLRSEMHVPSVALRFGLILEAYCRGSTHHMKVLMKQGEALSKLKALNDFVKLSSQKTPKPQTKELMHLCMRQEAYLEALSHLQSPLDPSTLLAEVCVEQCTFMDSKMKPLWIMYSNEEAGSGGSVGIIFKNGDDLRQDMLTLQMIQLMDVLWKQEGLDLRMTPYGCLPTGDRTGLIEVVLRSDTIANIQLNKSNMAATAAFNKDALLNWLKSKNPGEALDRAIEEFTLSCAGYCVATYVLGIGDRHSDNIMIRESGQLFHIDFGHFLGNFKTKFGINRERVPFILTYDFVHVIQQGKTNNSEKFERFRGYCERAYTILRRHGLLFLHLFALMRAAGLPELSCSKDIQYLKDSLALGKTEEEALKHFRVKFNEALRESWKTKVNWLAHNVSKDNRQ
Experimental: (§6) Enzyme Binding Assays (KINOMEscan®)
(§7) Kinase enzyme binding affinities of compounds disclosed herein were determined using the KINOMEscan technology performed by DiscoveRx Corporation, San Diego, Calif., USA (www.kinomescan.com). Table A reports the obtained Kd values (nM), with the Kd being the inhibitor binding constant: […]

PIK3Cα_h = molecular target: T2, PIK3Cα_h (Homo sapiens, UniProt P42336); test: Enzyme binding assay (KINOMEscan); conditions: DiscoveRx
T2 construct: purchased DiscoveRx Corporation
Experimental: as §6, §7

PIK3Cγ_h = molecular target: T3, PIK3Cγ_h (Homo sapiens, UniProt P48736); test: Enzyme binding assay (KINOMEscan); conditions: DiscoveRx
T3 construct: purchased DiscoveRx Corporation
Experimental: as §6, §7

PIK3Cβ_h = molecular target: T4, PIK3Cβ_h (Homo sapiens, UniProt P42338); test: Enzyme binding assay (KINOMEscan); conditions: DiscoveRx
T4 construct: purchased DiscoveRx Corporation
Experimental: as §6, §7

MTOR_h = molecular target: T5, MTOR_h (Homo sapiens, UniProt P42345); test: Enzyme binding assay (KINOMEscan); conditions: DiscoveRx
T5 construct: purchased DiscoveRx Corporation
Experimental: as §6, §7

[2] = test system: Akt phosphorylated at Ser473 in PC-3 cells; test: Cellular assay: phosphorylation of Akt (Ser473) in PC-3 cells, MSD ELISA; type: cell-based; conditions: Homo sapiens, PC-3, 1 h, 60 min compound incubation, read-out: IC50 pAkt_S473
Experimental: as §1, §2, §3, §4, §5

T4 sequence (P42338 whole entry): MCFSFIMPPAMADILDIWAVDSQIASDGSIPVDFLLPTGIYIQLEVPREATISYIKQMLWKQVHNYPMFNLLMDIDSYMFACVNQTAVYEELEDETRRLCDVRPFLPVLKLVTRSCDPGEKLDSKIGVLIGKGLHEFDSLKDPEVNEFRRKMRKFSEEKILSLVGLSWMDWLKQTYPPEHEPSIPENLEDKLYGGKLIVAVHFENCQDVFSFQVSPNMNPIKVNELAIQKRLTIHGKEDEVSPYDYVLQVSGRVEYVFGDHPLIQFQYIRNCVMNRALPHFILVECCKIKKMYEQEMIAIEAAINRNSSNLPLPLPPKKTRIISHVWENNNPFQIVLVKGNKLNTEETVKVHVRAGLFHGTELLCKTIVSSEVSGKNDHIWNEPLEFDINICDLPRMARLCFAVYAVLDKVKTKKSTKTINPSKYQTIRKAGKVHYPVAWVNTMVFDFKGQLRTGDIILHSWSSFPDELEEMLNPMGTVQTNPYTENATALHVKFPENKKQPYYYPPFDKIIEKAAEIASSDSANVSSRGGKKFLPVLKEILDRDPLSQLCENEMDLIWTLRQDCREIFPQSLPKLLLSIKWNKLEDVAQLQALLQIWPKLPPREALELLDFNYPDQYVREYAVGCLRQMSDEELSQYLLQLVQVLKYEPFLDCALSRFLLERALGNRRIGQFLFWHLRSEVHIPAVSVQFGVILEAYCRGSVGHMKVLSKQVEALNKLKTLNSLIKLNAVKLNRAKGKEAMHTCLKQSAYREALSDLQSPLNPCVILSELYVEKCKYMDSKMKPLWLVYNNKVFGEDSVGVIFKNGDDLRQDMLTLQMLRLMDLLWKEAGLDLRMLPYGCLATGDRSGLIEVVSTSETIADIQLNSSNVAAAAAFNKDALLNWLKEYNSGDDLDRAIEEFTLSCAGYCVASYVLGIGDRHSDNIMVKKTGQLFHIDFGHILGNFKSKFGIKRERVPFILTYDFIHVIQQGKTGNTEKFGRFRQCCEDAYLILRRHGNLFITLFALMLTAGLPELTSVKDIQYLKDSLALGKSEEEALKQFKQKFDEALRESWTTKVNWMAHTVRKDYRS
T3 sequence (P48736 whole entry): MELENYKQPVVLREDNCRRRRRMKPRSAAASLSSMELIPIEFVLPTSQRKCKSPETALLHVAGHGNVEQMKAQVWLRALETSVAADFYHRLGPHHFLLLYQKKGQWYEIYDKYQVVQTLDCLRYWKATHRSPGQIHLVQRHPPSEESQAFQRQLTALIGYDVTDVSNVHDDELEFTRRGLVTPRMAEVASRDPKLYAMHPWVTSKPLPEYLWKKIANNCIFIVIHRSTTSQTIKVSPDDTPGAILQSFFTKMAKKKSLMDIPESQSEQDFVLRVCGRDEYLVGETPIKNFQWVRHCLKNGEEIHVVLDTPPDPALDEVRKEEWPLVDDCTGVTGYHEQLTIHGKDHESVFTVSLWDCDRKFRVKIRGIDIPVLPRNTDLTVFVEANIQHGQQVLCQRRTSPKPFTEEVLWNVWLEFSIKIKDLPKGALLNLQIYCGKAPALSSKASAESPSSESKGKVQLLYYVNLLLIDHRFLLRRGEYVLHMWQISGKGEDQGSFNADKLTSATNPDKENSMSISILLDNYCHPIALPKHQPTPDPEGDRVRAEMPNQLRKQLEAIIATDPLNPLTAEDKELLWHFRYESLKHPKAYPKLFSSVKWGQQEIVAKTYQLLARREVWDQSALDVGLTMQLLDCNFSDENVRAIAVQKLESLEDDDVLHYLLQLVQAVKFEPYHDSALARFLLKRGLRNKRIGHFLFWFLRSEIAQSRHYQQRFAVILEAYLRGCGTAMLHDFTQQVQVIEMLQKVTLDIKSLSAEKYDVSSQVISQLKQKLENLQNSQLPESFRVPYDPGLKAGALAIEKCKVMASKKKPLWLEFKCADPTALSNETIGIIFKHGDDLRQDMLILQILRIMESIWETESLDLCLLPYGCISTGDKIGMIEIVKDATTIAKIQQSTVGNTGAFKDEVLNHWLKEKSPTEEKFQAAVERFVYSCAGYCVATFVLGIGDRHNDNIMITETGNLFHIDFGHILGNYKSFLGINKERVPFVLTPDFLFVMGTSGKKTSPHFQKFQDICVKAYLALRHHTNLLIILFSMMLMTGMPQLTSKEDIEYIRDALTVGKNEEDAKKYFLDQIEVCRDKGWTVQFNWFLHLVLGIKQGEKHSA
T2 sequence (P42336 whole entry): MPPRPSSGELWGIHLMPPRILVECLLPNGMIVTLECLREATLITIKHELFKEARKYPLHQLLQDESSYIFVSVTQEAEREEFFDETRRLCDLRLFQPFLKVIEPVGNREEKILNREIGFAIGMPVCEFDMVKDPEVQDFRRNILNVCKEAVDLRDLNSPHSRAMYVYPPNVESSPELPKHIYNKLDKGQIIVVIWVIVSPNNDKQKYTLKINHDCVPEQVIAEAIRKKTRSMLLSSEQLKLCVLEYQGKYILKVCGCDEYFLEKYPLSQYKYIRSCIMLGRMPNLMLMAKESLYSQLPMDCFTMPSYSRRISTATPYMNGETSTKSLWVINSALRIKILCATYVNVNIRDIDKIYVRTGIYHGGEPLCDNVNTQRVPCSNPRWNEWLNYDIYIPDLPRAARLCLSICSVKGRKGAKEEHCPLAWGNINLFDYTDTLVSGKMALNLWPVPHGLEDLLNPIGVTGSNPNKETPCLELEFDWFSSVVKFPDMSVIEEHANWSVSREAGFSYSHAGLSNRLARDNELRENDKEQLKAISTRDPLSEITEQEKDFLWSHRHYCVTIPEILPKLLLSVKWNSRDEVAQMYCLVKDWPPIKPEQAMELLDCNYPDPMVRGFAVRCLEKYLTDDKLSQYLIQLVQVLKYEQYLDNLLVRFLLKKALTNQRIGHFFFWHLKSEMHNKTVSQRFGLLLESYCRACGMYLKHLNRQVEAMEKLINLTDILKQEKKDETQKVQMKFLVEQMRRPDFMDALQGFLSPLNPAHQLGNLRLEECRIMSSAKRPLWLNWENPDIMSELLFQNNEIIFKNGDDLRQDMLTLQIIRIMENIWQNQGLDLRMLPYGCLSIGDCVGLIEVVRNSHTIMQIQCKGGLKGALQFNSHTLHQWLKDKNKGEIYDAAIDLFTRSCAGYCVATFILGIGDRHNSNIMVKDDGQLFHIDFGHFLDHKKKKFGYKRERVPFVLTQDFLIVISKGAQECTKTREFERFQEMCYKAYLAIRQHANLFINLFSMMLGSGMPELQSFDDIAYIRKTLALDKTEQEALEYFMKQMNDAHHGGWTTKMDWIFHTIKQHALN

SMILES	IC50 [1]	Kd (PIK3Cδ_h)	Kd (PIK3Cα_h)	Kd (PIK3Cγ_h)	Kd (PIK3Cβ_h)	Kd (MTOR_h)	IC50 [2]
Cc1c(Cc2c(CO)nc3c(-c4ccn[nH]4)cc(N4CCOCC4)cn23)cccc1C(F)(F)F [Compound 38]	> 513 nM	2040 nM	2950 nM	4370 nM	71 nM	2290 nM	> 513 nM
Cc1c(Cc2c(CNCCO)nc3cnc(N4CCOCC4)cn23)cccc1C(F)(F)F [Compound 12]	> 513 nM	5490 nM	> 30200 nM	> 30200 nM	68 nM	> 30200 nM	> 513 nM
Cc1c(Cc2c(CO)nc3c(-c4ccn[nH]4)cc(C4=CCOCC4)cn23)cccc1C(F)(F)F [Compound 42]	~20 nM	186 nM	525 nM	1070 nM	2.5 nM	151 nM	76 nM
Cc1c(Cc2c(CO)nc3ncc(N4CCOCC4)cn23)cccc1C(F)(F)F [Compound 18]	43 nM	442 nM	3500 nM	15300 nM	1.4 nM	17900 nM	72 nM
Cc1c(F)cccc1Cc1c(CO)nc2ncc(N3CCOCC3)cn12 [Compound 25]	120 nM	759 nM	5890 nM	7240 nM	8.9 nM	5620 nM	195 nM
Cc1c(Cl)cccc1Nc1c(CO)nc2ccc(N3CCOCC3)cn12 [Compound 39]	28 nM	141 nM	468 nM	11200 nM	0.5 nM	3980 nM	~40 nM
Cc1c(Cc2c(CN3CCC4(CCCS4(=O)=O)C3)nc3ncc(N4CCOCC4)cn23)cccc1C(F)(F)F (stereo not shown) [Compound 26]	71 nM	697 nM	4170 nM	> 30200 nM	6.8 nM	> 30200 nM	479 nM
Cc1c(Cc2c(CF)nc3ccc(N4CCOCC4)cn23)cccc1C(F)(F)F [Compound 29]	50 nM	2140 nM	6920 nM	14500 nM	126 nM	> 30200 nM	155 nM
Cc1c(Cc2c(CN3CC4(C3)CS(=O)(=O)C4)nc3ccc(C4=CCOCC4)cn23)cccc1C(F)(F)F [Compound 40]	~10 nM	44 nM	302 nM	> 30200 nM	0.3 nM	12900 nM	15 nM
Cc1c(Cc2c(CN3CCCC4(CNC4)C3)nc3ncc(N4CCOCC4)cn23)cccc1C(F)(F)F [Compound 20]	> 513 nM	7240 nM	> 30200 nM	> 30200 nM	76 nM	> 30200 nM	> 513 nM
Cc1c(Cc2c(CO)nc3c(N)cc(N4CCOCC4)cn23)cccc1C(F)(F)F [Compound 45]	166 nM	3470 nM	14500 nM	15800 nM	91 nM	18600 nM	145 nM
Cc1c(Cc2c(CC(=O)N3CC(CO)C3)nc3cnc(N4CCOCC4)cn23)cccc1C(F)(F)F [Compound 15]	–	11200 nM	> 30200 nM	> 30200 nM	141 nM	> 30200 nM	–
CC(=O)N(CCO)Cc1nc2ccc(N3CCOCC3)cn2c1Cc1cccc(C(F)(F)F)c1C [Compound 37]	~282 nM	1440 nM	10200 nM	> 30200 nM	20 nM	24000 nM	282 nM
Cc1nc2c(CO)cc(C3=CCOCC3)cn2c1Cc1cccc(C(F)(F)F)c1C [Compound 44]	83 nM	562 nM	7240 nM	21400 nM	1.7 nM	17800 nM	135 nM
Cc1c(Cc2c(CNCCCO)nc3ccc(N4CCOCC4)cn23)cccc1C(F)(F)F [Compound 35]	89 nM	575 nM	22400 nM	> 30200 nM	5.8 nM	21900 nM	74 nM
Cc1c(Cc2c(CN3CC4(CCN4)C3)nc3ccc(N4CCOCC4)cn23)cccc1C(F)(F)F [Compound 32]	~178 nM	324 nM	7240 nM	8510 nM	2.2 nM	27500 nM	191 nM
CCOC(=O)Cc1nc2ccc(N3CCOCC3)cn2c1Cc1cccc(C(F)(F)F)c1C [Compound 30]	–	5750 nM	> 10000 nM	> 30200 nM	631 nM	> 10000 nM	–
Cc1nc2c(C(=O)O)nc(C3=CCOCC3)cn2c1Cc1cccc(C(F)(F)F)c1C [Compound 3]	> 513 nM	468 nM	11500 nM	> 30200 nM	1.4 nM	> 30200 nM	–
